Counter-ions that a name gives are not always drawn.

The target in this assay is hERG (Homo sapiens, UniProt Q12809). The assay can be described thus: cell-based. As to conditions: (-LOG10(IC50), µM).
Chain of hERG (Q12809 whole entry): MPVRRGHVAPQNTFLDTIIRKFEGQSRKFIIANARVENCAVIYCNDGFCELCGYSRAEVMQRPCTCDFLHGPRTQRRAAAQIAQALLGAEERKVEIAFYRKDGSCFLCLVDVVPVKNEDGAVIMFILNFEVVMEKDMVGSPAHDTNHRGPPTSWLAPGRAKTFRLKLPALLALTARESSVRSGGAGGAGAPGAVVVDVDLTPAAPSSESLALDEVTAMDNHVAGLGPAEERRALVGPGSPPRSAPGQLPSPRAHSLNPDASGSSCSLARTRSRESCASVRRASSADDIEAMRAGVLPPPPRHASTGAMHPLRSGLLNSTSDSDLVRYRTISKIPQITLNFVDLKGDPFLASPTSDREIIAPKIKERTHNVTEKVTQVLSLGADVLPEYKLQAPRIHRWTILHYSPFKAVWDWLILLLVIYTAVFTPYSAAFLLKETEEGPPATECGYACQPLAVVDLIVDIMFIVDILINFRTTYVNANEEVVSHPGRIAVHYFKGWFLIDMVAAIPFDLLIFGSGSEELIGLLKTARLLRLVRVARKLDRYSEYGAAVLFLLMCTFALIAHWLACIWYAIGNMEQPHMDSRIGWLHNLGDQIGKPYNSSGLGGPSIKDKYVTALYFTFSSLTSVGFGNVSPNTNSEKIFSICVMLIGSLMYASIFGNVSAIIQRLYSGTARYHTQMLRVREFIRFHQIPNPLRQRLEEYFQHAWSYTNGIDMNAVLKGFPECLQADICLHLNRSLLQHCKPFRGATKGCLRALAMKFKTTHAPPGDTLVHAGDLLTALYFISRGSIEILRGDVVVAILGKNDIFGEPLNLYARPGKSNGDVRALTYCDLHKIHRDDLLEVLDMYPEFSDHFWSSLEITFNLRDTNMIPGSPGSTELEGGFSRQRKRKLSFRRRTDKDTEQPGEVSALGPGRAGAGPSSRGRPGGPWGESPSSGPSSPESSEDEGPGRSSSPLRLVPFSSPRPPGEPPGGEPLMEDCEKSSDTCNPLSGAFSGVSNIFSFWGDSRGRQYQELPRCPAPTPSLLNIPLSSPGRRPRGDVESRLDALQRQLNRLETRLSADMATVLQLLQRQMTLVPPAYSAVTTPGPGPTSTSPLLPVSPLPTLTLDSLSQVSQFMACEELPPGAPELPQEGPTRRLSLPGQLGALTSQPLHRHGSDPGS
A word on the IC50: it is the midpoint of a concentration-inhibition curve. Lower therefore signals greater potency in that assay. As to `C[C@@H]1CC[C@H]2C(C)(C)[C@H]3C[C@@]12CC[C@@]3(C)O` [(+)-Cedrol], the IC50 was 43.6 µM. Compound `CC[C@]12CCCN3CCc4c(n(c5ccccc45)C(=O)C1)[C@@H]32` [(-)-Eburnamonine] gave an IC50 of 1.9 µM. The compound `CC(C)=CCN1CC[C@@]2(C)c3cc(O)ccc3C[C@@H]1[C@@H]2C` [(-)-Pentazocine succinate] showed an IC50 of 22.8 µM.

Regarding `C/C=C\C/C=C/CCCCCCCCOC(C)=O` [(E,Z)-Tetradeca-9,12-dienyl acetate], the IC50 is 36.7 µM.

As for `C[C@@H](C1=C(CCN(C)C)Cc2ccccc21)c1ccccn1` [(S)-(+)-Dimethindene maleate], it took 13.4 µM to reach half-maximal inhibition (IC50). For `CCN(CC)CC1CCCCN1CC(=O)N1c2ccccc2C(=O)Nc2cccnc21` (centres unmarked) [AF-DX 116] the value was 20.5 µM; for `CC1(C)CCC(C)(C)c2cc(C(=O)Nc3ccc(C(=O)O)cc3)ccc21` [AM580], 43.6 µM; for `O=C1NCN(c2ccccc2)C12CCN(CCCOc1ccc(F)cc1)CC2` [AMI-193], 0.786 µM.

As to `NCc1cccc(C2CCN(C(=O)c3ccc(C#Cc4ccccc4F)o3)CC2)c1` [AVE5638], the concentration for half-maximal inhibition (IC50) was 9.77 µM. The figure for `CCOC(=O)O[C@H](C)OC(=O)c1ccc2c(c1)cc(C(=O)NC1CCN(C(C)C)CC1)n2Cc1cc(-c2ccc(Cl)s2)on1` [AVE6324] is 8.14 µM.

Take `CN1CCN(Cc2cc(-c3ccc4[nH]c(=O)oc4c3)co2)[C@@H](c2ccc(F)cc2)C1` [AVE8488]: half-maximal inhibition (IC50) required 37.4 µM. Compared with the last compound, the IC50 is about 4.6-fold higher. In turn, `CCCOc1sc(C(=O)N2CCC(c3cc(CN)ccc3F)CC2)c(C)c1Br` [AVE8923] had an IC50 of 4.49 µM. The compound `CC=O` [Acetaldehyde] gave an IC50 of 5.33 µM. On to `CC(=O)c1ccc2c(c1)N(CCCN(C)C)c1ccccc1S2` [Acetopromazine maleate], for which it took 15.1 µM to reach half-maximal inhibition (IC50). Compound `CCCCOC(=O)CC(CC(=O)OCCCC)(OC(C)=O)C(=O)OCCCC` [Acetyl tributyl citrate] showed an IC50 of 8.99 µM.

`CC(=O)C1=C(C)[C@@H]2C[C@@]3(C1)[C@H](C)CC[C@H]3C2(C)C` [Acetylcedrene] showed an IC50 of 30.5 µM. As to `CCN(CC)CCOC(=O)C(c1ccccc1)c1ccccc1` [Adiphenine hydrochloride], the IC50 was 4.77 µM. `ClC1=C(Cl)[C@]2(Cl)[C@H]3[C@H]([C@@H]4C=C[C@H]3C4)[C@@]1(Cl)C2(Cl)Cl` [Aldrin] showed an IC50 of 23.6 µM. This IC50 lies about 4.9-fold higher than the previous one.

The compound `C=CCOc1cc(Cl)ccc1C(=O)NCCN(CC)CC` [Alloclamide] gave an IC50 of 8.82 µM. As for `C=CCCC(=O)/C=C/C1C(C)=CCCC1(C)C` (centres unmarked) [Allyl Ionone], half-maximal inhibition (IC50) required 30.9 µM. For `C=CCNc1nc(NCC=C)nc(N2CCN(C(c3ccc(F)cc3)c3ccc(F)cc3)CC2)n1` [Almitrine dimethanesulfonate], the midpoint of inhibition, the IC50, lay at 6.01 µM. `CCCN(CCC)C(=O)Cc1c(-c2ccc(Cl)cc2)nc2ccc(Cl)cn12` [Alpidem] gave an IC50 of 20.5 µM. This IC50 is about 3.4-fold higher than that of the compound before. Consider `O=C(c1ccc(F)cc1)C1CCN(CCn2c(=S)[nH]c3ccccc3c2=O)CC1` [Altanserin hydrochloride], for which the IC50 is 0.817 µM. Compared with the last compound, the IC50 is about 25-fold lower. Compound `Nc1ccc(C(=O)N2CC3CC(CN(Cc4ccccc4)C3)C2)cc1` [Ambasilide] had an IC50 of 21.3 µM. For `CCC(C)(C)c1ccc(CC(C)CN2C[C@@H](C)O[C@@H](C)C2)cc1` (some centres unmarked) [Amorolfine] the value was 9.16 µM.

As for `CCOC(=O)C1(c2ccccc2)CCN(CCc2ccc(N)cc2)CC1` [Anileridine], the IC50 is 18.3 µM. Consider `c1ccc(CN(CC2=NCCN2)c2ccccc2)cc1` [Antazoline hydrochloride], for which the IC50 is 15.7 µM. For `CCCCN1C(=O)[C@@H]([C@H](O)C2CCCCC2)NC(=O)C12CCN(Cc1ccc(Oc3ccc(C(=O)O)cc3)cc1)CC2` [Aplaviroc hydrochloride] the value was 17.4 µM; for `CCN(CC)CCCN(c1ccccc1)C1Cc2ccccc2C1` [Aprindine hydrochloride], 2.79 µM. Turning to `CCN(CC)CCOC(=O)C(C)(c1ccccc1)c1ccccc1` [Aprofene], the IC50 is 9.16 µM. For `CCc1cccc(N(C)C(N)=Nc2cccc3ccccc23)c1` [Aptiganel hydrochloride] the value was 10.3 µM; for `CN(C)c1ccc(C(=N)c2ccc(N(C)C)cc2)cc1` [Auramine hydrochloride], 44.8 µM; for `O=C(CCCN1CCN(c2ccccn2)CC1)c1ccc(F)cc1` [Azaperone], 4.77 µM. `CC1=C(C(=O)OC(C)C)C(c2cccc([N+](=O)[O-])c2)C(C(=O)OC2CN(C(c3ccccc3)c3ccccc3)C2)=C(N)N1` (centres unmarked) [Azelnidipine]: 8.99 µM corresponded to half-maximal inhibition (IC50). As to `CN1CCC(N(Cc2ccccc2)c2ccccc2)CC1` [Bamipine], 3.94 µM corresponded to half-maximal inhibition (IC50). Regarding `C[C@H]1C[C@H]2[C@@H]3CCC4=CC(=O)C=C[C@]4(C)[C@@]3(Cl)[C@@H](O)C[C@]2(C)[C@@]1(O)C(=O)CO` [Beclomethasone], the IC50 is 23.9 µM. Turning to `CN1[C@@H]2CC[C@H]1C[C@@H](OC(=O)c1cc(Cl)cc(Cl)c1)C2` [Bemesetron], the IC50 is 6.01 µM. Take `CCN(CC)CCOC(=O)C(O)(c1ccccc1)c1ccccc1` [Benactyzine]: the 50% inhibitory concentration (IC50) is 11.5 µM. The figure for `CC(Cc1cccc(C(F)(F)F)c1)NCCOC(=O)c1ccccc1` (centres unmarked) [Benfluorex hydrochloride] is 9.52 µM; for `O=C(CCCN1CCC(n2c(O)nc3ccccc32)CC1)c1ccc(F)cc1` [Benperidol] it is 1.76 µM; for `CCc1oc2ccccc2c1C(=O)c1cc(Br)c(O)c(Br)c1` [Benzbromarone] it is 10.7 µM. Regarding `c1ccc(CSCc2ccccc2)cc1` [Benzyl sulfide], the IC50 was 47 µM. Compound `CCCCCCCCCCCCCC[N+](C)(C)Cc1ccccc1` [Benzyldimethyltetradecylammonium chloride dihydrate] had an IC50 of 2.05 µM. Compared with the last compound, the IC50 is about 23-fold lower. The compound `CCCCCCCCCCCCCCCC[N+](C)(C)Cc1ccccc1` [Benzylhexadecyldimethylammonium chloride] gave an IC50 of 3.94 µM.

As for `c1ccc(C[P+](c2ccccc2)(c2ccccc2)c2ccccc2)cc1` [Benzyltriphenylphosphonium chloride], the half-inhibitory concentration (IC50) was 2.27 µM. As to `O=c1[nH]c2ccc([S+]([O-])CCN3CCC(Cc4ccc(F)cc4)CC3)cc2o1` (centres unmarked) [Besonprodil], the IC50 was 4.36 µM. Against the preceding compound, the IC50 is about 1.9-fold higher.

For the compound `COC(=O)c1cc(Oc2ccc(Cl)cc2Cl)ccc1[N+](=O)[O-]` [Bifenox], it took 23.6 µM to reach half-maximal inhibition (IC50). This IC50 is about 5.4-fold higher than that of the compound before. In turn, `c1ccc(-c2ccc(C(c3ccccc3)n3ccnc3)cc2)cc1` (centres unmarked) [Bifonazole] had a 50% inhibitory concentration (IC50) of 12.5 µM. Against the preceding compound, the IC50 is about 1.9-fold lower.

In the case of `CCOCCn1c(C2CCN(CCc3ccc(C(C)(C)C(=O)O)cc3)CC2)nc2ccccc21` [Bilastine], half-maximal inhibition (IC50) required 10.1 µM. `CCC(C)c1cc([N+](=O)[O-])cc([N+](=O)[O-])c1OC(=O)C=C(C)C` (centres unmarked) [Binapacryl]: 30.9 µM corresponded to half-maximal inhibition (IC50).

The compound `O=C1CC2(CCCC2)CC(=O)N1CCNCC1COc2ccccc2O1` (centres unmarked) [Binospirone mesylate] had an IC50 of 19 µM. For `CCCCOCCOC(=O)c1ccccc1C(=O)OCCOCCCC` [Bis(2-butoxyethyl) phthalate] the value was 20.2 µM; for `CN(C)c1ccc(C(=O)c2ccc(N(C)C)cc2)cc1` [Bis(4-(dimethylamino)phenyl)methanone], 57.1 µM; for `Oc1ccc(C(=C(Cl)Cl)c2ccc(O)cc2)cc1` [Bis(4-hydroxyphenyl)-2,2-dichloroethylene], 47 µM.

For the compound `CN(C)C(=S)SSC(=S)N(C)C` [Bis(dimethylaminothiocarbonyl) disulfide], the IC50 was 22.1 µM. For the compound `O=S(=O)(C(Cl)(Cl)Cl)C(Cl)(Cl)Cl` [Bis(trichloromethyl)sulfone], the IC50 is 18.8 µM. `O=C1C=CC(=O)N1c1ccc(Cc2ccc(N3C(=O)C=CC3=O)cc2)cc1` [Bismaleimide] showed a concentration for half-maximal inhibition (IC50) of 43.6 µM. Compared with the last compound, the IC50 is about 2.3-fold higher.

With `Oc1ccc(C(c2ccc(O)cc2)(C(F)(F)F)C(F)(F)F)cc1` [Bisphenol AF], the IC50 turned out to be 43.4 µM. `Cc1ccc(C(=O)Oc2ccc(C(O)CNC(C)(C)C)cc2OC(=O)c2ccc(C)cc2)cc1` (centres unmarked) [Bitolterol] had an IC50 of 5.78 µM. In turn, `CCN1CCN(c2cc(-c3ccc(F)cc3)c3c(n2)CCCCCC3)CC1` [Blonanserin] showed a concentration for half-maximal inhibition (IC50) of 3.99 µM. `Cc1cc2c(OCC(CNC(C)(C)C)OC(=O)c3ccccc3)cccc2[nH]1` (centres unmarked) [Bopindolol] showed an IC50 of 21.3 µM. The compound `CN(Cc1cc(Br)cc(Br)c1N)C1CCCCC1` [Bromhexine hydrochloride] had an IC50 of 12.5 µM. The compound `CN(C)CCOC(c1ccccc1)c1ccc(Br)cc1` (centres unmarked) [Bromodiphenhydramine] showed an IC50 of 4.09 µM. With `CCCCCCCC(=O)Oc1c(Br)cc(C#N)cc1Br` [Bromoxynil octanoate], half-maximal inhibition (IC50) was put at 26.4 µM.

The compound `CC(C)(Cc1c[nH]c2ccccc12)NCC(O)COc1ccccc1C#N` (centres unmarked) [Bucindolol] had a concentration for half-maximal inhibition (IC50) of 8.49 µM. `Cc1ccc(Cl)c(OCC(O)CNC(C)(C)C)c1` (centres unmarked) [Bupranolol] showed an IC50 of 20.1 µM. For the compound `CC(C)N1C(=O)N(c2ccccc2)CS/C1=N\C(C)(C)C` [Buprofezin], it took 19.5 µM to reach half-maximal inhibition (IC50).

`CCCCN(CCCC)CCCOC(=O)c1ccc(N)cc1` [Butacaine] had an IC50 of 14.5 µM. Regarding `CN(Cc1ccc(C(C)(C)C)cc1)Cc1cccc2ccccc12` [Butenafine], half-maximal inhibition (IC50) was put at 12 µM. For `OC(C#CCN1CCCC1)(c1ccccc1)c1ccccc1` [Butinoline] the value was 19 µM. As to `Clc1ccc(CCC(Cn2ccnc2)Sc2c(Cl)cccc2Cl)cc1` (centres unmarked) [Butoconazole nitrate], the IC50 was 5.35 µM. This IC50 is about 3.6-fold lower than that of the compound before. For `CCC(C)Nc1c([N+](=O)[O-])cc(C(C)(C)C)cc1[N+](=O)[O-]` (centres unmarked) [Butralin] the value was 23.6 µM; for `CC(CC1c2ccccc2CCc2ccccc21)CN(C)C` (centres unmarked) [Butriptyline], 16.9 µM; for `Cc1cc(C(C)(C)C)c(O)c(C(C)(C)C)c1` [Butylated hydroxytoluene], 20.7 µM. The compound `CCCCOC(=O)COC(=O)c1ccccc1C(=O)OCCCC` [Butylphthalyl butylglycolate] had an IC50 of 20.9 µM. In the case of `Nc1ccc(N=Nc2ccccc2)c(N)c1` [C.I. Basic Orange 2], the IC50 was 19.8 µM.

`Cc1cc(-c2ccc(N=Nc3cc(S(=O)(=O)O)c4ccccc4c3N)c(C)c2)ccc1N=Nc1cc(S(=O)(=O)O)c2ccccc2c1N` [C.I. Direct Red 2] gave an IC50 of 21.2 µM.

The record behind these values is publication PMC8869358, “High-Throughput Chemical Screening and Structure-Based Models to Predict hERG Inhibition” (Biology, 2022).
